In this assay the target is T1, human PTH1 receptor (Homo sapiens, UniProt Q03431).
T1 sequence (Q03431 27-593): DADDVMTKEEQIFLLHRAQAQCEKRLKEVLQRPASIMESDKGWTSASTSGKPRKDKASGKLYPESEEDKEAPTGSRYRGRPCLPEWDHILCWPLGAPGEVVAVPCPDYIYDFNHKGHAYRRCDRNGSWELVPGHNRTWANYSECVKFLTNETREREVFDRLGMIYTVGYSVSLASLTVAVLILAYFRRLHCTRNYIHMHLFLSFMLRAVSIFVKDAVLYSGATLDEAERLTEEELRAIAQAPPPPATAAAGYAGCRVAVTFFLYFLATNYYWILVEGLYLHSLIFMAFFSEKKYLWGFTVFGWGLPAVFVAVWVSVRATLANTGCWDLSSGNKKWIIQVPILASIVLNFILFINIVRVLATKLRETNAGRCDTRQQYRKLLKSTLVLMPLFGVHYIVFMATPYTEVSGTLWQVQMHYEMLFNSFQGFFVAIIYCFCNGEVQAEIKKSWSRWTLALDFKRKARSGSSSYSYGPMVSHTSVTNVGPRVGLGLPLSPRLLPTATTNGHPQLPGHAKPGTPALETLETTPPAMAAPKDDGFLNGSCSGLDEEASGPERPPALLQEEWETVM
Put plainly: In vitro cAMP signal activity in HKRK-B7 cells (LLC-PK1 cells overexpressing the human PTH1 receptor). Format: cell-based. The settings on record: HKRK-B7 cells; compound at 1×10^−3 M; cAMP produced as percentage of that produced by hPTH(1-34) at 100 nM.
In the case of `CCc1cc(N(C)C(N)=O)ccc1/C=C/S(=O)(=O)N1CCC2(CC1)N=C(C1CCC(C)CC1)NC2=O` (stereo not shown) [Compound 727, 1-(3-ethyl-4-{(E)-2-[2-(4-methyl-cyclohexyl)-4-oxo-1,3,8-triaza-spiro[4.5]dec-1-ene-8-sulfonyl]-vinyl}-phenyl)-1-methyl-urea], the “cAMP production activity (%)” value came to 52%. Take `Cc1cc(C(=O)N2CC(O)C2)cc(C)c1CCS(=O)(=O)N1CCC2(CC1)N=C(c1ccc(F)c(OC(F)(F)F)c1)NC2=O` [Compound 1337, 2-(4-fluoro-3-trifluoromethoxy-phenyl)-8-{2-[4-(3-hydroxy-azetidine-1-carbonyl)-2,6-dimethyl-phenyl]-ethanesulfonyl}-1,3,8-triaza-spiro[4.5]dec-1-en-4-one]: the “cAMP production activity (%)” value was found to be 44%. The result for `Cc1c(CCS(=O)(=O)N2CCC3(CC2)N=C(c2cccc(OC(F)(F)F)c2)NC3=O)cccc1C(=O)N(C)C` [Compound 409, 2,N,N-Trimethyl-3-{2-[4-oxo-2-(3-trifluoromethoxy-phenyl)-1,3,8-triaza-spiro[4.5]dec-1-ene-8-sulfonyl]-ethyl}-benzamide] reads 55%; that for `CC(=O)Nc1ccc(CCS(=O)(=O)N2CCC3(CC2)N=C(C2CCC(c4ccc(Cl)cc4)CC2)NC3=O)c(C)c1` (stereo not shown) [Compound 920, N-[4-(2-{2-[4-(4-Chloro-phenyl)-cyclohexyl]-4-oxo-1,3,8-triaza-spiro[4.5]dec-1-ene-8-sulfonyl}-ethyl)-3-methyl-phenyl]-acetamide], 70%; that for `Cc1cc(N2C(=O)NC(C)C2=O)cc(C)c1CCS(=O)(=O)N1CCC2(CC1)N=C(C1CCC(C)CC1)NC2=O` (stereo not shown) [Compound 767, 3-(3,5-dimethyl-4-{2-[2-(4-methyl-cyclohexyl)-4-oxo-1,3,8-triaza-spiro[4.5]dec-1-ene-8-sulfonyl]-ethyl}-phenyl)-5-methyl-imidazolidine-2,4-dione], 83%. For `O=C1NC(c2cccc(C(F)(F)F)c2)=NC12CCN(S(=O)(=O)c1ccc(Br)s1)CC2` [Compound 69, 8-(5-bromo-thiophene-2-sulfonyl)-2-(3-trifluoromethyl-phenyl)-1,3,8-triaza-spiro[4.5]dec-1-en-4-one], the “cAMP production activity (%)” value is on record as 61%. In the case of `CC(=O)N(CCOCCO)c1ccc(/C=C/S(=O)(=O)N2CCC3(CC2)N=C(C2CCC(CCC(F)(F)F)CC2)NC3=O)c(C)c1` (stereo not shown) [Compound 544, N-[2-(2-hydroxy-ethoxy)-ethyl]-N-[3-methyl-4-((E)-2-{4-oxo-2-[4-(3,3,3-trifluoro-propyl)-cyclohexyl]-1,3,8-triaza-spiro[4.5]dec-1-ene-8-sulfonyl}-vinyl)-phenyl]-acetamide], the “cAMP production activity (%)” value came to 80%. The result for `Cc1cccc(NCCO)c1/C=C/S(=O)(=O)N1CCC2(CC1)N=C(C1CCCCC1)NC2=O` [Compound 200, 2-cyclohexyl-8-{(E)-2-[2-(2-hydroxy-ethylamino)-6-methyl-phenyl]-ethenesulfonyl}-1,3,8-triaza-spiro[4.5]dec-1-en-4-one] reads 37%. Next, `Cc1c(CCS(=O)(=O)N2CCC3(CC2)N=C(c2cccc(OC(F)(F)F)c2)NC3=O)cccc1OCCC(O)CO` (stereo not shown) [Compound 266, 8-{2-[3-(3,4-dihydroxy-butoxy)-2-methyl-phenyl]-ethanesulfonyl}-2-(3-trifluoromethoxy-phenyl)-1,3,8-triaza-spiro[4.5]dec-1-en-4-one]: 81%; `Cc1cc(N(C)C(N)=O)cc(C)c1/C=C/S(=O)(=O)N1CCC2(CC1)N=C(c1ccc(OCCCC(F)(F)F)cc1)NC2=O` [Compound 1020, 1-[3,5-dimethyl-4-((E)-2-{4-oxo-2-[4-(4,4,4-trifluoro-butoxy)-phenyl]-1,3,8-triaza-spiro[4.5]dec-1-ene-8-sulfonyl}-vinyl)-phenyl]-1-methyl-urea]: 81%. For `COc1cccc(/C=C/S(=O)(=O)N2CCC3(CC2)N=C(C2CCCCC2)NC3=O)c1` [Compound 180, 2-cyclohexyl-8-[(E)-2-(3-methoxy-phenyl)-ethenesulfonyl]-1,3,8-triaza-spiro[4.5]dec-1-en-4-one], the “cAMP production activity (%)” value came out at 60%. Consider `O=C1NC(C2CCCCC2)=NC12CCN(S(=O)(=O)CCc1cccc3c1ccn3C[C@H](O)[C@@H](O)CO)CC2` [Compound 1392, 2-Cyclohexyl-8-{2-[1-((2S,3S)-2,3,4-trihydroxy-butyl)-1H-indol-4-yl]-ethanesulfonyl}-1,3,8-triaza-spiro[4.5]dec-1-en-4-one], for which the “cAMP production activity (%)” value turned out to be 89%.

Regarding `Cc1cc(N2C(=O)CNC2=O)c(C)cc1CCS(=O)(=O)N1CCC2(CC1)N=C(C1CCC(C)CC1)NC2=O` (stereo not shown) [Compound 778, 3-(2,5-dimethyl-4-{2-[2-(4-methyl-cyclohexyl)-4-oxo-1,3,8-triaza-spiro[4.5]dec-1-ene-8-sulfonyl]-ethyl}-phenyl)-imidazolidine-2,4-dione], the “cAMP production activity (%)” value turned out to be 57%.

On to `Cc1cc2ccc1CCS(=O)(=O)N1CCC3(CC1)N=C(NC3=O)c1cc(cc(C(F)(F)F)c1)OCC/C=C\CCCCCCN(C)C2=O` [Compound 1417], for which the “cAMP production activity (%)” value is on record as 49%. The result for `Cc1cc(C(=O)N(C)C)ccc1CCS(=O)(=O)N1CCC2(CC1)N=C(c1cccc(Cl)c1F)NC2=O` [Compound 93, 4-{2-[2-(3-chloro-2-fluoro-phenyl)-4-oxo-1,3,8-triaza-spiro[4.5]dec-1-ene-8-sulfonyl]-ethyl}-3,N,N-trimethyl-benzamide] reads 111%.

`Cc1cc(N2C(=O)CC[C@@H]2CO)ccc1/C=C/S(=O)(=O)N1CCC2(CC1)N=C(c1ccc(F)c(C(F)(F)F)c1)NC2=O` [Compound 620, 2-(4-fluoro-3-trifluoromethyl-phenyl)-8-{(E)-2-[4-((R)-2-hydroxymethyl-5-oxo-pyrrolidin-1-yl)-2-methyl-phenyl]-ethenesulfonyl}-1,3,8-triaza-spiro[4.5]dec-1-en-4-one]: the “cAMP production activity (%)” value stood at 112%. With `CCC[S+]([O-])CCCCCC1=NC2(CCN(S(=O)(=O)/C=C/c3c(C)cc(N(C)C(N)=O)cc3C)CC2)C(=O)N1` (stereo not shown) [Compound 1316, 1-[3,5-Dimethyl-4-((E)-2-{4-oxo-2-[5-(propane-1-sulfinyl)-pentyl]-1,3,8-triaza-spiro[4.5]dec-1-ene-8-sulfonyl}-vinyl)-phenyl]-1-methyl-urea], the “cAMP production activity (%)” value is given as 2.9%. Consider `Cc1cc(OC[C@H](O)CO)cc(C)c1CCS(=O)(=O)N1CCC2(CC1)N=C(C1CCCCC1)NC2=O` [Compound 279, 2-cyclohexyl-8-{2-[4-((R)-2,3-dihydroxy-propoxy)-2,6-dimethyl-phenyl]-ethanesulfonyl}-1,3,8-triaza-spiro[4.5]dec-1-en-4-one], for which the “cAMP production activity (%)” value came out at 67%. Next, `Cc1cc(N(C)C(N)=O)cc(C)c1CCS(=O)(=O)N1CCC2(CC1)N=C(C1CCC(CCC(F)(F)F)CC1)NC2=O` (stereo not shown) [Compound 696, 1-[3,5-Dimethyl-4-(2-{4-oxo-2-[4-(3,3,3-trifluoro-propyl)-cyclohexyl]-1,3,8-triaza-spiro[4.5]dec-1-ene-8-sulfonyl}-ethyl)-phenyl]-1-methyl-urea]: 132%; `Cc1cc(C(=O)N(C)C)ccc1CCS(=O)(=O)N1CCC2(CC1)N=C(c1cccc(C)c1C)NC2=O` [Compound 113, 4-{2-[2-(2,3-dimethyl-phenyl)-4-oxo-1,3,8-triaza-spiro[4.5]dec-1-ene-8-sulfonyl]-ethyl}-3,N,N-trimethyl-benzamide]: 111%. For the compound `CCCCCCCCCC1=NC2(CCN(S(=O)(=O)CCc3ccc(C(=O)N4CC[C@@H](O)C4)cc3C)CC2)C(=O)N1` [Compound 979, 8-{2-[4-((R)-3-hydroxy-pyrrolidine-1-carbonyl)-2-methyl-phenyl]-ethanesulfonyl}-2-nonyl-1,3,8-triaza-spiro[4.5]dec-1-en-4-one], the “cAMP production activity (%)” value was 145%. The result for `Cc1cc(N2C(=O)CC[C@H]2CO)ccc1CCS(=O)(=O)N1CCC2(CC1)N=C(c1ccc(F)c(C(F)(F)F)c1)NC2=O` [Compound 858, 2-(4-fluoro-3-trifluoromethyl-phenyl)-8-{2-[4-((S)-2-hydroxymethyl-5-oxo-pyrrolidin-1-yl)-2-methyl-phenyl]-ethanesulfonyl}-1,3,8-triaza-spiro[4.5]dec-1-en-4-one] reads 100%; that for `Cc1cc(C(=O)N2CCS(=O)(=O)CC2)ccc1/C=C/S(=O)(=O)N1CCC2(CC1)N=C(C1CCCCC1)NC2=O` [Compound 502, 2-cyclohexyl-8-{(E)-2-[4-(1,1-dioxo-1λ^6-thiomorpholine-4-carbonyl)-2-methyl-phenyl]-ethenesulfonyl}-1,3,8-triaza-spiro[4.5]dec-1-en-4-one], 14%. As for `CO[C@H]1CC[C@@H](C2=NC3(CCN(S(=O)(=O)c4cccc(Cl)c4)CC3)C(=O)N2)CC1` [Compound 24, 8-(3-chloro-benzenesulfonyl)-2-(4-methoxy-cyclohexyl)-1,3,8-triaza-spiro[4.5]dec-1-en-4-one], the “cAMP production activity (%)” value is reported as 18%. Next, `Cc1cc(N(C)C(N)=O)cc(C)c1/C=C/S(=O)(=O)N1CCC2(CC1)N=C(c1cccc(OCCCC(F)(F)F)c1)NC2=O` [Compound 1019, 1-[3,5-dimethyl-4-((E)-2-{4-oxo-2-[3-(4,4,4-trifluoro-butoxy)-phenyl]-1,3,8-triaza-spiro[4.5]dec-1-ene-8-sulfonyl}-vinyl)-phenyl]-1-methyl-urea]: 72%.

Values taken from patent publication US9169254B2, “Spiroimidazolone derivative” (Chugai Seiyaku Kabushiki Kaisha, priority 2009, dated 2015).
